target: T1, KSP (Homo sapiens, UniProt P52732); assay: KSP inhibitory activity, end-point assay; type: biochemical; details: KSP inhibitory activity based on end-point assay; read-out: IC50 Rating
T1 sequence (P52732 1-1056): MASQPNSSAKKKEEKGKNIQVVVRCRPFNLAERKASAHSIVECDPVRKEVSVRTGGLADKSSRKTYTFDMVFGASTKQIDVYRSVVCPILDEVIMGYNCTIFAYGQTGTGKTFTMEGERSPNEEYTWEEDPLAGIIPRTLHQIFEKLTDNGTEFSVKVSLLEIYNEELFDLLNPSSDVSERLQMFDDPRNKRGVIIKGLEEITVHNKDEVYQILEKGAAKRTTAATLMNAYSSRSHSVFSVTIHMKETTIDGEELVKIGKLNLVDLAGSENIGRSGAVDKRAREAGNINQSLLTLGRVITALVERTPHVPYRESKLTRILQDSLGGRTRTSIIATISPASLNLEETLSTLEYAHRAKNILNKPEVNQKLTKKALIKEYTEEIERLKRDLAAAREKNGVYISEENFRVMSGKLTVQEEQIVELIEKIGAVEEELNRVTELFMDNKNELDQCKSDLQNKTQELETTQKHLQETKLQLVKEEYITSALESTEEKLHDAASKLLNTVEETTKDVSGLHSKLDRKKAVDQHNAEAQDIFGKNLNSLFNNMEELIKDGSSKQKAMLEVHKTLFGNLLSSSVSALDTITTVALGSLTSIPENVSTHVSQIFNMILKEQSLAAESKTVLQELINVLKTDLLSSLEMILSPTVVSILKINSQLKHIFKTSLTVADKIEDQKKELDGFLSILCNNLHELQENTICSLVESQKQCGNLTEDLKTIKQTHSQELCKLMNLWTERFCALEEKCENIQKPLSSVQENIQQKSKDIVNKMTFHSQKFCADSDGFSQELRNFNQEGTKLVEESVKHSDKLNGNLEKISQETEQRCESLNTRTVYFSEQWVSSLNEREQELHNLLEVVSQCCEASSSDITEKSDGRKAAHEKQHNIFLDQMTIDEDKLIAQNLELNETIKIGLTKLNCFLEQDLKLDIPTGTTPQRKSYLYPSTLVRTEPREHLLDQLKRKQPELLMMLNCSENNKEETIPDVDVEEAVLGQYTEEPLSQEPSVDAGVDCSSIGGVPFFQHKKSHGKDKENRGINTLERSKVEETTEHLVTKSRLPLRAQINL
From the text: The inhibitory activity of the present compounds towards KSP may be assayed by methods known in the art, for example, by using the methods as described in the examples.

SMILES | IC50
CC(C)(C)C1CCc2nc3c(NS(C)(=O)=O)c(C(N)=O)[nH]c3cc2C1 (stereo not shown) [Example 68] | 1000 to 10000 nM
CC(C)(C)C1CCc2nc3c(-c4cccc(S(C)(=O)=O)c4)c(C(N)=O)[nH]c3cc2C1 (stereo not shown) [Example 120] | 100 to 1000 nM
CC(C)(C)[C@@H]1CCc2nc3cc(C(=O)Nc4ccc(O)cc4)[nH]c3cc2C1 [Example 103A] | 100 to 1000 nM
CC(C)(C)C1CCc2nc3cc(C(O)c4ccccc4)[nH]c3cc2C1 (stereo not shown) [Example 109] | > 10000 nM
CC(C)(C)C1CCc2nc3c(Br)c(C(N)=O)[nH]c3cc2C1 (stereo not shown) [Example 35] | > 10000 nM
CC(C)(C)C1CCc2nc3c(C(=O)NCCN4CCNCC4)c[nH]c3cc2C1 (stereo not shown) [Example 74] | > 10000 nM
CC(C)(C)C1CCc2nc3cc(C(=O)NNc4ccccc4)[nH]c3cc2C1 (stereo not shown) [Example 95] | > 10000 nM
C[C@H](CO)NC(=O)c1c[nH]c2cc3c(nc12)CCC(C(C)(C)C)C3 (stereo partly shown) [Example 77] | > 10000 nM
Cc1[nH]c2cc3c(nc2c1CCO)CCC(C(C)(C)C)C3 (stereo not shown) [Example 36] | > 10000 nM
CC(C)(C)[C@H]1CCc2nc3cc(C(=O)Nc4ccc(O)cc4)[nH]c3cc2C1 [Example 103B] | > 10000 nM
CCOC(=O)c1c(Cl)[nH]c2cc3c(nc12)CCC(C(C)(C)C)C3 (stereo not shown) [Example 69] | > 10000 nM
CCOCc1cc2nc3c(cc2[nH]1)CC(C(C)(C)C)CC3 (stereo not shown) [Example 88] | 100 to 1000 nM
CC(C)(C)C1CCc2nc3cc(C(=O)N[C@H](CO)Cc4ccccc4)[nH]c3cc2C1 (stereo partly shown) [Example 108] | > 10000 nM
CC(C)(C)C1CCc2nc3cc[nH]c3cc2C1 (stereo not shown) [Example 83] | < 100 nM
CC(C)(C)C1CCc2nc3cc(C(=O)N[C@H](CO)c4ccccc4)[nH]c3cc2C1 (stereo partly shown) [Example 106] | 100 to 1000 nM
CNC(=O)c1cc2nc3c(cc2[nH]1)C[C@H](C(C)(C)C)CC3 (single isomer, unassigned) [Example 22A] | < 100 nM
CC(C)(C)C1CCc2nc3cc(C(=O)N[C@H](CN)c4cccc(N)c4)[nH]c3cc2C1 (stereo partly shown) [Example 123] | < 100 nM
CC(C)(C)C1CCc2nc3cc(C(=O)NCCCCCO)[nH]c3cc2C1 (stereo not shown) [Example 11] | 1000 to 10000 nM
C[C@@H](CO)NC(=O)c1cc2nc3c(cc2[nH]1)CC(C(C)(C)C)CC3 (stereo partly shown) [Example 20] | 1000 to 10000 nM
CC(O)c1cc2nc3c(cc2[nH]1)CC(C(C)(C)C)CC3 (stereo not shown) [Example 29] | 100 to 1000 nM
CC(C)(C)C1CCc2nc3cc(C(=O)NCCCCCN)[nH]c3cc2C1 (stereo not shown) [Example 10] | 100 to 1000 nM
CC(C)(C)C1CCc2nc3c(CCCCCO)c(C(N)=O)[nH]c3cc2C1 (stereo not shown) [Example 59] | 1000 to 10000 nM

SMILES | IC50
COC(=O)c1c[nH]c2cc3c(nc12)CCC(C(C)(C)C)C3 (stereo not shown) [Example 71] | > 10000 nM
CC(C)(C)C1CCc2nc3cc(C(=O)NCc4ccc5c(c4)OCO5)[nH]c3cc2C1 (stereo not shown) [Example 90] | > 10000 nM
CC(C)(C)C1CCc2nc3cc(C(=O)NCCO)[nH]c3cc2C1 (stereo not shown) [Example 7] | 100 to 1000 nM
Cc1cc(C)n(C(=O)c2c[nH]c3cc4c(nc23)CCC(C(C)(C)C)C4)n1 (stereo not shown) [Example 93] | > 10000 nM
CC(C)(C)C1CCc2nc3c(C#CCCO)c(C(N)=O)[nH]c3cc2C1 (stereo not shown) [Example 56] | > 10000 nM
CC(C)(C)C1CCc2nc3c(CCO)c(CO)[nH]c3cc2C1 (stereo not shown) [Example 37] | > 10000 nM
CCOC(=O)c1[nH]c2cc3c(nc2c1NC(=O)COC(C)=O)CCC(C(C)(C)C)C3 (stereo not shown) [Example 62] | > 10000 nM
CC(C)(C)C1CCc2nc3c(CCCCO)c(C(N)=O)[nH]c3cc2C1 (stereo not shown) [Example 57] | 100 to 1000 nM
CC(C)(C)C1CCc2nc3c(C(=O)NCc4cccnc4)c[nH]c3cc2C1 (stereo not shown) [Example 75] | > 10000 nM
CCOC(=O)c1c[nH]c2cc3c(nc12)CCC(C(C)(C)C)C3 (stereo not shown) [Example 70] | > 10000 nM
CC(C)(C)C1CCc2nc3cc(C(=O)NCCCCN)[nH]c3cc2C1 (stereo not shown) [Example 5] | 100 to 1000 nM
CC(C)(C)C1CCc2nc3c(-c4cccc(N)c4)c(C(N)=O)[nH]c3cc2C1 (stereo not shown) [Example 121] | > 10000 nM
COCc1cc2nc3c(cc2[nH]1)CC(C(C)(C)C)CC3 (stereo not shown) [Example 87] | 100 to 1000 nM
CC(C)(C)C1CCc2nc3cc(C(=O)Nc4ccc(N)nc4)[nH]c3cc2C1 (stereo not shown) [Example 104] | 100 to 1000 nM
CC(C)(C)C1CCc2nc3c(NC(=O)CO)c(C(N)=O)[nH]c3cc2C1 (stereo not shown) [Example 63] | 1000 to 10000 nM
CCOC(=O)c1[nH]c2cc3c(nc2c1/C=C/C(=O)OC)CCC(C(C)(C)C)C3 (stereo not shown) [Example 39] | > 10000 nM
CCc1c(C(N)=O)[nH]c2cc3c(nc12)CCC(C(C)(C)C)C3 (stereo not shown) [Example 48] | 1000 to 10000 nM
CC(C)(C)C1CCc2nc3cc(C(=O)N[C@@H](CO)c4ccccc4)[nH]c3cc2C1 (stereo partly shown) [Example 107] | > 10000 nM
CC(C)OCc1cc2nc3c(cc2[nH]1)CC(C(C)(C)C)CC3 (stereo not shown) [Example 89] | > 10000 nM
CC(C)(C)C1CCc2nc3c(CCC#N)c(C#N)[nH]c3cc2C1 (stereo not shown) [Example 41] | 1000 to 10000 nM
CC(C)(C)C1CCc2nc3c(-c4cccc(O)c4)c(C(N)=O)[nH]c3cc2C1 (stereo not shown) [Example 115] | 1000 to 10000 nM
C[C@@H](CO)NC(=O)c1c[nH]c2cc3c(nc12)CCC(C(C)(C)C)C3 (stereo partly shown) [Example 76] | > 10000 nM

SMILES | IC50
CC(C)(C)C1CCc2nc3cc(CC#N)[nH]c3cc2C1 (stereo not shown) [Example 33] | 1000 to 10000 nM
CC(C)(C)C1CCc2nc3cc(COC(=O)c4ccccc4)[nH]c3cc2C1 (stereo not shown) [Example 32] | > 10000 nM
CCc1c(C(=O)NCCN)[nH]c2cc3c(nc12)CCC(C(C)(C)C)C3 (stereo not shown) [Example 60] | 100 to 1000 nM
CC(C)(C)[C@H]1CCc2nc3cc(C(N)=O)[nH]c3cc2C1 (single isomer, unassigned) [Example 21B] | 100 to 1000 nM
Cc1c(C(N)=O)[nH]c2cc3c(nc12)CCC(C(C)(C)C)C3 (stereo not shown) [Example 46] | > 10000 nM
CC(C)(C)C1CCc2nc3c(C(=O)NCCO)c[nH]c3cc2C1 (stereo not shown) [Example 72] | 1000 to 10000 nM
CC(C)(C)C1CCc2nc3cc(C(=O)NCCc4ccc(O)cc4)[nH]c3cc2C1 (stereo not shown) [Example 15] | > 10000 nM
CC(C)(C)[C@@H]1CCc2nc3cc(C(N)=O)[nH]c3cc2C1 (single isomer, unassigned) [Example 21A] | < 100 nM
CC(C)(C)C1CCc2nc3cc(C(=O)NNc4ccccn4)[nH]c3cc2C1 (stereo not shown) [Example 101] | 100 to 1000 nM
CC(C)(C)C1CCc2nc3c(CCCN)c(C(N)=O)[nH]c3cc2C1 (stereo not shown) [Example 53] | > 10000 nM
CN1CCN(C(=O)c2cc3nc4c(cc3[nH]2)CC(C(C)(C)C)CC4)CC1 (stereo not shown) [Example 16] | > 10000 nM
CC(C)(C)C1CCc2nc3cc(C(=O)Nc4ccc(CCO)cc4)[nH]c3cc2C1 (stereo not shown) [Example 105] | 1000 to 10000 nM
CC(C)(C)C1CCc2nc3cc(C(=O)NCCCCO)[nH]c3cc2C1 (stereo not shown) [Example 13] | 1000 to 10000 nM
CC(C)(C)C1CCc2nc3c(NCCO)c(C(N)=O)[nH]c3cc2C1 (stereo not shown) [Example 66] | 1000 to 10000 nM
CC(C)(C)C1CCc2nc3c(CCCO)c(C(N)=O)[nH]c3cc2C1 (stereo not shown) [Example 50] | 100 to 1000 nM
CC(C)(C)C1CCc2nc3c([N+](=O)[O-])c(C(N)=O)[nH]c3cc2C1 (stereo not shown) [Example 26] | > 10000 nM
CC(C)(C)C1CCc2nc3cc(C(=O)NCc4ccccn4)[nH]c3cc2C1 (stereo not shown) [Example 91] | > 10000 nM
CC(C)(C)C1CCc2nc3cc(C(=O)N[C@H](CN)c4cccc(NC(=O)c5ccco5)c4)[nH]c3cc2C1 (stereo partly shown) [Example 124] | < 100 nM
CNC(=O)c1cc2nc3c(cc2[nH]1)CC(C(C)(C)C)CC3 (stereo not shown) [Example 3] | < 100 nM
CC(C)(C)C1CCc2nc3cc(C(=O)Nc4ccncc4)[nH]c3cc2C1 (stereo not shown) [Example 97] | 100 to 1000 nM

same assay, conditions: numerical IC50 values for representative compounds; read-out: IC50

SMILES | IC50
CNC(=O)c1cc2nc3c(cc2[nH]1)C[C@H](C(C)(C)C)CC3 (single isomer, unassigned) [Example 22A] | 20 nM
CC(C)(C)[C@@H]1CCc2nc3cc(C(N)=O)[nH]c3cc2C1 (single isomer, unassigned) [Example 21A] | 30 nM
CNC(=O)c1cc2nc3c(cc2[nH]1)CC(C(C)(C)C)CC3 (stereo not shown) [Example 3] | 50 nM
